Measured values as given in patent US10052320B2, “Substituted quinoxalines as FGFR kinase inhibitors” (ASTEX THERAPEUTICS LIMITED, priority 2011, dated 2018).

Assays:
FGFR4 (h) = FGFR4 (h) (Homo sapiens, UniProt P22455); test: FGFR4 (enzymatic assay), TR-FRET; assay type: biochemical; settings: read-out: FGFR 4 pIC50 (converted)
Method: In a final reaction volume of 30 μL, FGFR4 (h) (60 ng/ml) was incubated with 50 mM HEPES pH 7.5, 6 mM MnCl2, 1 mM DTT, 0.1 mM Na3VO4, 0.01% Triton-X-100, 500 nM Btn-Flt3 and 5 μM ATP in the presence of compound (1% DMSO final). […] Time-Resolved Fluorescence Resonance Energy Transfer (TR-FRET) signal (ex340 nm. Em 620 nm, em 655 nm) was measured afterwards and results are expressed in RFU (Relative Fluorescence Units).

[1] = molecular target: Ba/F3-FGFR3-transfected cells (Homo sapiens, UniProt P22607); test: Ba/F3-FGFR3 (minus IL3) cellular proliferation assay, Alamar Blue; assay type: cell-based; settings: for BAF3-FGFR 3 (MIN IL3) 96 well pIC50: minus IL3, 96 well; for BAF3-FGFR 3 (MIN IL3) 384 well pIC50: minus IL3, 384 well
Method: Ba/F3-FGFR3 (Minus IL3 or Plus IL3) (Cellular Proliferation Assay)
(§1) Cells were put in an incubator at 37° C. and 5% CO2. After 24 hours, 10 μl of Alamar Blue solution (0.5 mM K3Fe(CN)6, 0.5 mM KaFe(CN)6, 0.15 mM Resazurin and 100 mM Phosphate Buffer) was added to the wells, incubated for 4 hours at 37° C. and 5% CO2 before RFU's (Relative Fluorescence Units) (ex. 540 nm., em. 590 nm.) were measured in a flurorescence plate reader. […]
(§2) In a 96 well plate, 180 μl cell culture medium (phenol red free RPMI-1640, 10% FBS, 2 mM L-Glutamine and 50 μg/ml Gentamycin) containing 10000 cells per well of Ba/F3-FGFR3-transfected cells were pipette and 20 μl of compound dilution in DMSO was added. Cells were put in an incubator at 37° C. and 5% CO2. After 24 hours, 40 μl of Alamar Blue solution (0.5 mM K3Fe(CN)6, 0.5 mM KaFe(CN)6, 0.15 mM Resazurin and 100 mM Phosphate Buffer) was added to the wells, incubated for 4 hours at 37° C. and 5% CO2 before RFU's (Relative Fluorescence Units) (ex. 540 nm., em. 590 nm.) were measured in a flurorescence plate reader.

[2] = molecular target: T1, Ba/F3-Flt3-transfected cells (Homo sapiens, UniProt P36888, cells depend on it, form not given); test: Ba/F3-Flt3 (minus IL3) cellular proliferation assay, Alamar Blue; assay type: cell-based
T1 sequence (P36888 1-993): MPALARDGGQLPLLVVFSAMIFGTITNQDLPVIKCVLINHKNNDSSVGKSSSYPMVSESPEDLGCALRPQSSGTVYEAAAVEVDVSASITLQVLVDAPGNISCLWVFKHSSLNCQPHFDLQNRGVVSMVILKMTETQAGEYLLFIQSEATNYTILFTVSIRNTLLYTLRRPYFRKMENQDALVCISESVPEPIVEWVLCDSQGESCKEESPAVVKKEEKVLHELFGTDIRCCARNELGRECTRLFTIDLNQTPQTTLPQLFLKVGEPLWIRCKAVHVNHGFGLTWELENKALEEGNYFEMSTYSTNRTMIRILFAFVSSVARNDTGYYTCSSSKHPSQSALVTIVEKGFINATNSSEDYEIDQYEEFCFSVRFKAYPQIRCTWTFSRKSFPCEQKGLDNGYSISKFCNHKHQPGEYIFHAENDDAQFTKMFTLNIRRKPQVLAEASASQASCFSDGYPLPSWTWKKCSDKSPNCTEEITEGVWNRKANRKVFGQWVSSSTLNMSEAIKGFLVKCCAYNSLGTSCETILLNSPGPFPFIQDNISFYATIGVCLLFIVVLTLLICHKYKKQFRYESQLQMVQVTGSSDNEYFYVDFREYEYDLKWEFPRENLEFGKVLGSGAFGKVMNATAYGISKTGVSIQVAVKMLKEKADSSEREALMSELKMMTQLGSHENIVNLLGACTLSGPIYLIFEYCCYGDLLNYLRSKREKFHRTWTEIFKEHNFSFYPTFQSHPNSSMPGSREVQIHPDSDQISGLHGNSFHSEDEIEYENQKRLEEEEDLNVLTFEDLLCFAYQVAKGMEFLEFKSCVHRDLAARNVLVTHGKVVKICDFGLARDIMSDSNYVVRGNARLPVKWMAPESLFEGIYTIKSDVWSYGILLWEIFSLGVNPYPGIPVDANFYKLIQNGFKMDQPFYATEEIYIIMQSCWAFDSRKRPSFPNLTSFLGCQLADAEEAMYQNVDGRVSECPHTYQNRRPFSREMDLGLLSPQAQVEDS
Method: Ba/F3-Flt3 (Minus IL3 or Plus IL3) (Cellular Proliferation Assay)
as §1
as §2, with “Ba/F3-Flt3-transfected” for “Ba/F3-FGFR3-transfected”

Sequence of Ba/F3-FGFR3-transfected cells (P22607 whole entry, change not shown): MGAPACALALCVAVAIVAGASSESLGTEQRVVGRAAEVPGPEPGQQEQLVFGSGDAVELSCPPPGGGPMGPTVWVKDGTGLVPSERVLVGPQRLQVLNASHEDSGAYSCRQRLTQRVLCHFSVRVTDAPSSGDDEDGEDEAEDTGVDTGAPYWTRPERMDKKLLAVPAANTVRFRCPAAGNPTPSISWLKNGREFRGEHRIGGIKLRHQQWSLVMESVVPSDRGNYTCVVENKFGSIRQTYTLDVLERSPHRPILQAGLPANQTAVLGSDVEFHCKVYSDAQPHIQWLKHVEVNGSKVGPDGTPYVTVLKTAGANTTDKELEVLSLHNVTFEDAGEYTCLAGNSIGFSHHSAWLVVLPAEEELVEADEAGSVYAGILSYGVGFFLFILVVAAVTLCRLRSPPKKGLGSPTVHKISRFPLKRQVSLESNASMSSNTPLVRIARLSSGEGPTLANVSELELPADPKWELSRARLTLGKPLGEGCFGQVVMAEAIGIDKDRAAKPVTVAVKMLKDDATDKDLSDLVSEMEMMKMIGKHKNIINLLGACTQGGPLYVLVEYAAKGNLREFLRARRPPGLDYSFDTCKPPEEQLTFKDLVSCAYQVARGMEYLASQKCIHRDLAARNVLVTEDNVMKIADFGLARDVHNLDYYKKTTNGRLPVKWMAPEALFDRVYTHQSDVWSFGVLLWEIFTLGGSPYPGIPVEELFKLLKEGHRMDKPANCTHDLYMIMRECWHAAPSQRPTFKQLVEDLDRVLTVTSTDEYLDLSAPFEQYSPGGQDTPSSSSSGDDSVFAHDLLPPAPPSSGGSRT
Sequence of FGFR4 (h) (P22455 22-802): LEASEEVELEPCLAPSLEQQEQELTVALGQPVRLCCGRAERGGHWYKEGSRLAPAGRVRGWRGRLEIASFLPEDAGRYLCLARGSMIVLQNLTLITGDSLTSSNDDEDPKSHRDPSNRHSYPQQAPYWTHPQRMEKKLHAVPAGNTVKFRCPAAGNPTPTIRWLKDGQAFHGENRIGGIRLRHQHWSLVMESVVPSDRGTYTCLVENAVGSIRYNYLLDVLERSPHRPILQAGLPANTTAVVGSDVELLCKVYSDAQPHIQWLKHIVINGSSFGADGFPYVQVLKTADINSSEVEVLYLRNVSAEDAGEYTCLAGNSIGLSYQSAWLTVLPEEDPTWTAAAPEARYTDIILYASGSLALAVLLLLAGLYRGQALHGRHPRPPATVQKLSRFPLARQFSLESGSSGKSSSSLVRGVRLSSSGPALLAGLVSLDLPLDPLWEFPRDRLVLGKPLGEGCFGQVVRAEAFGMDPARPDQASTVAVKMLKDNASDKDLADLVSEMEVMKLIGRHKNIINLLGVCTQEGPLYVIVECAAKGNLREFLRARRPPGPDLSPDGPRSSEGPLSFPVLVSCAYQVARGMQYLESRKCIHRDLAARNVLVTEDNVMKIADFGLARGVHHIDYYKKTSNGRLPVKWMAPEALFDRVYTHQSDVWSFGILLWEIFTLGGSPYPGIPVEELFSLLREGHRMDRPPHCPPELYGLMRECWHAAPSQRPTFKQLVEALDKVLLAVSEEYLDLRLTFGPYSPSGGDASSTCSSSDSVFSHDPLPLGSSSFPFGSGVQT

## COc1cc(OC)cc(N(CC2CC2)c2ccc3ncc(-c4cccc(N5CCOCC5)c4)nc3c2)c1 [Compound 92]
FGFR4 (h)
  IC50: 2400 nM
[1]
  BAF3-FGFR 3 (MIN IL3) 96 well pIC50: <5
  BAF3-FGFR 3 (MIN IL3) 384 well pIC50: <5
[2]; minus IL3
  BAF3-FLT3 (MIN IL3) 96 well pIC50: <5
  BAF3-FLT3 (MIN IL3) 384 well pIC50: <5
other
  melting point: 155 °C

## COc1cc(OC)cc(N(CC2CC2)c2ccc3ncc(C#Cc4cncn4C)nc3c2)c1 [Compound 22]
FGFR4 (h)
  IC50: 275 nM
[1]
  BAF3-FGFR 3 (MIN IL3) 96 well pIC50: 5.04
  BAF3-FGFR 3 (MIN IL3) 384 well pIC50: <5.52
[2]; minus IL3, 96 well
  BAF3-FLT3 (MIN IL3) 96 well pIC50: <5
[2]; minus IL3, 384 well
  BAF3-FLT3 (MIN IL3) 384 well pIC50: <5
other
  melting point: 166 °C

## COc1cc(OC)cc(N(CC2CC2)c2ccc3ncc(-c4cnc5[nH]ccc5c4)nc3c2)c1 [Compound 88]
FGFR4 (h)
  IC50: > 10000 nM
[1]
  BAF3-FGFR 3 (MIN IL3) 96 well pIC50: <5
  BAF3-FGFR 3 (MIN IL3) 384 well pIC50: <5
[2]; minus IL3, 96 well
  BAF3-FLT3 (MIN IL3) 96 well pIC50: <5
[2]; minus IL3, 384 well
  BAF3-FLT3 (MIN IL3) 384 well pIC50: <5
other
  melting point: 234 °C

## COc1cc(OC)cc(N(CCNC(C)C)c2ccc3ncc(-c4ccnc(C(=O)NCCCN)c4)nc3c2)c1 [Compound 146]
FGFR4 (h)
  IC50: 49 nM
[1]
  BAF3-FGFR 3 (MIN IL3) 384 well pIC50: 6.41
[2]; minus IL3
  BAF3-FLT3 (MIN IL3) 384 well pIC50: <5

## COc1cc(OC)cc(N(CC2CC2)c2ccc3ncc(C(=O)Nc4cncn4C)nc3c2)c1 [Compound 27]
FGFR4 (h)
  IC50: > 10000 nM
[1]
  BAF3-FGFR 3 (MIN IL3) 96 well pIC50: <5
  BAF3-FGFR 3 (MIN IL3) 384 well pIC50: <5
[2]; minus IL3
  BAF3-FLT3 (MIN IL3) 96 well pIC50: <5
  BAF3-FLT3 (MIN IL3) 384 well pIC50: <5
other
  melting point: 180 °C

## COc1cc(OC)cc(N(CC2CC2)c2ccc3ncc(-c4ccc5c(c4)OCO5)nc3c2)c1 [Compound 87]
FGFR4 (h)
  IC50: 3550 nM
[1]
  BAF3-FGFR 3 (MIN IL3) 384 well pIC50: <5.4
[2]; minus IL3, 384 well
  BAF3-FLT3 (MIN IL3) 384 well pIC50: <5.4
other
  melting point: 144 °C

## COc1cc(OC)cc(N(CC#Cc2ncccn2)c2ccc3ncc(-c4cccnc4)nc3c2)c1 [Compound 2]
FGFR4 (h)
  IC50: 195 nM
[1]
  BAF3-FGFR 3 (MIN IL3) 384 well pIC50: 7.13
[2]; minus IL3
  BAF3-FLT3 (MIN IL3) 384 well pIC50: <5
other
  melting point: 184 °C

## COc1cc(OC)cc(N(CCO)c2ccc3ncc(-c4ccnc(C(=O)NCCCCCN)c4)nc3c2)c1 [Compound 138]
FGFR4 (h)
  IC50: 178 nM
[1]
  BAF3-FGFR 3 (MIN IL3) 384 well pIC50: 5.04
[2]; minus IL3
  BAF3-FLT3 (MIN IL3) 384 well pIC50: <5

## COc1cc(OC)cc(N(CCCO)c2ccc3ncc(-c4ccnc(C(=O)N5CCOCC5)c4)nc3c2)c1 [Compound 43]
FGFR4 (h)
  IC50: 45.7 nM
[1]
  BAF3-FGFR 3 (MIN IL3) 384 well pIC50: 6.25
[2]; minus IL3
  BAF3-FLT3 (MIN IL3) 384 well pIC50: <5
other
  melting point: 190 °C

## COc1cc(OC)cc(N(CCCO)c2ccc3ncc(-c4cnc(N5CCN(C)CC5)c(C)c4)nc3c2)c1 [Compound 135]
FGFR4 (h)
  IC50: 28.8 nM
[1]
  BAF3-FGFR 3 (MIN IL3) 384 well pIC50: 6.3
[2]; minus IL3
  BAF3-FLT3 (MIN IL3) 384 well pIC50: 5.43
other
  melting point: 179 °C

## COc1cc(OC)cc(N(CCCNCC(F)(F)F)c2ccc3ncc(-c4ccnc(C(=O)NCCCN)c4)nc3c2)c1 [Compound 148]
FGFR4 (h)
  IC50: 603 nM
[1]
  BAF3-FGFR 3 (MIN IL3) 384 well pIC50: <5
[2]; minus IL3
  BAF3-FLT3 (MIN IL3) 384 well pIC50: <5
other
  melting point: 87 °C

## COc1cc(OC)cc(N(CCCNC(C)C)c2ccc3ncc(-c4ccnc(NC(=O)NC(C)C)c4)nc3c2)c1 [Compound 131]
FGFR4 (h)
  IC50: 21.4 nM
[1]
  BAF3-FGFR 3 (MIN IL3) 384 well pIC50: 6.08
[2]; minus IL3
  BAF3-FLT3 (MIN IL3) 384 well pIC50: 5.5
other
  melting point: 155 °C

## COc1cc(OC)cc(N(CCO)c2ccc3ncc(-n4cnc(CO)c4)nc3c2)c1 [Compound 38]
FGFR4 (h)
  IC50: 93.3 nM
[1]
  BAF3-FGFR 3 (MIN IL3) 384 well pIC50: 6.23
[2]; minus IL3
  BAF3-FLT3 (MIN IL3) 384 well pIC50: <5
other
  melting point: 215 °C

## COc1cc(OC)cc(N(CC2CC2)c2ccc3ncc(C(=O)N4CCC4)nc3c2)c1 [Compound 93]
FGFR4 (h)
  IC50: > 10000 nM
[1]
  BAF3-FGFR 3 (MIN IL3) 96 well pIC50: <5
  BAF3-FGFR 3 (MIN IL3) 384 well pIC50: <5
[2]; minus IL3
  BAF3-FLT3 (MIN IL3) 96 well pIC50: <5
  BAF3-FLT3 (MIN IL3) 384 well pIC50: <5
other
  melting point: 176 °C

## COc1cc(OC)cc(N(CC2CC2)c2ccc3ncc(N4CCN(CCO)CC4)nc3c2)c1 [Compound 49]
FGFR4 (h)
  IC50: 1580 nM
[1]
  BAF3-FGFR 3 (MIN IL3) 96 well pIC50: 5.5
  BAF3-FGFR 3 (MIN IL3) 384 well pIC50: <5
[2]; minus IL3
  BAF3-FLT3 (MIN IL3) 96 well pIC50: 5.2
  BAF3-FLT3 (MIN IL3) 384 well pIC50: <5

## COc1cc(OC)cc(N(CCCNCCCO)c2ccc3ncc(-c4ccnc(C(=O)NCCCCN)c4)nc3c2)c1 [Compound 132]
FGFR4 (h)
  IC50: 117 nM
[1]
  BAF3-FGFR 3 (MIN IL3) 384 well pIC50: 5.57
[2]; minus IL3
  BAF3-FLT3 (MIN IL3) 384 well pIC50: 5.31

## COc1cc(OC)cc(N(CCCNC(C)C)c2ccc3ncc(-c4ccnc(N)c4)nc3c2)c1 [Compound 143]
FGFR4 (h)
  IC50: 9.55 nM
[1]
  BAF3-FGFR 3 (MIN IL3) 384 well pIC50: 6.4
[2]; minus IL3
  BAF3-FLT3 (MIN IL3) 384 well pIC50: ~5.25

## COCC(CN(c1cc(OC)cc(OC)c1)c1ccc2ncc(-c3cccnc3)nc2c1)OC(C)=O (single isomer, unassigned) [Compound 52]
FGFR4 (h)
  IC50: 407 nM
[1]
  BAF3-FGFR 3 (MIN IL3) 384 well pIC50: ~6.17
[2]; minus IL3
  BAF3-FLT3 (MIN IL3) 384 well pIC50: <5

## COc1cc(OC)cc(N(CCCO)c2ccc3ncc(-c4ccnc(Cl)c4)nc3c2)c1 [Compound 136]
FGFR4 (h)
  IC50: 97.7 nM
[1]
  BAF3-FGFR 3 (MIN IL3) 384 well pIC50: 5.71
other
  melting point: 175 °C

## COc1cc(OC)cc(N(CCCNCC(F)(F)F)c2ccc3ncc(-c4ccn(C)c4)nc3c2)c1 [Compound 5]
[1]
  BAF3-FGFR 3 (MIN IL3) 384 well pIC50: 6.57
[2]; minus IL3
  BAF3-FLT3 (MIN IL3) 384 well pIC50: <5
